The values that follow are results of earlier work, collected in patent US20230066502A1, “PREDICTION METHOD FOR INDICATION OF AIMED DRUG OR EQUIVALENT SUBSTANCE OF DRUG, PREDICTION APPARATUS, AND PREDICTION PROGRAM” (KARYDO THERAPEUTIX, INC., priority 2020, published 2023).

The conditions of the data set: for occurrence frequency of adverse event Blood glucose decreased / occurrence frequency of adverse event Sleep disorder: FIG. 3 example of training data, already reported adverse event-related information, cases of this adverse event / total adverse event cases for the drug; for occurrence frequency of adverse event Low blood sugar / occurrence frequency of adverse event sleepiness: FIG. 7 example of second training data calculated from FAERS adverse event data, maximum value 1.

As to `OC[C@H]1O[C@@H](c2ccc(Cl)c(Cc3ccc(O[C@H]4CCOC4)cc3)c2)[C@H](O)[C@@H](O)[C@@H]1O` [EMPA, empagliflozin], the “occurrence frequency of adverse event Blood glucose decreased” value was 0.141, the “occurrence frequency of adverse event Sleep disorder” value is given as 0.007, the “occurrence frequency of adverse event Low blood sugar” value was 0.12 and the “occurrence frequency of adverse event sleepiness” value is 0.01.
On to `O=C1CCc2ccc(OCCCCN3CCN(c4cccc(Cl)c4Cl)CC3)cc2N1` [aripiprazole], for which the “occurrence frequency of adverse event Blood glucose decreased” value is recorded as 0.009, the “occurrence frequency of adverse event Sleep disorder” value is recorded as 0.026, the “occurrence frequency of adverse event Low blood sugar” value is listed as 0.0 and the “occurrence frequency of adverse event sleepiness” value is 0.5.
